The values that follow come from ChEMBL document CHEMBL3046190, “Acid promoted intramolecular formation of 3,5-anhydro-1,4-furano-7-ulose derivatives via the Wittig-cyclization procedure and their antimicrobial properties” (2013).

Usually MIC stands for the lowest concentration that inhibits growth of the organism.

The subject of one assay is Enterococcus faecalis. The experiment in a line: Antimicrobial activity against Enterococcus faecalis ATCC 29212 assessed as growth inhibition at 0.005 to 5 mg/ml after 24-48 hr by broth microdilution technique. The assay is classed as functional, organism-based. In general terms: In broth dilution the organism is exposed to a series of concentrations in liquid medium.

The test system of the next assay is Bacillus subtilis. The experiment in a line: Antimicrobial activity against Bacillus subtilis ATCC 6633 assessed as growth inhibition after 24-48 hr by broth microdilution technique. The assay is classed as functional.
For another assay, the system named is Escherichia coli. The experiment in a line: Antimicrobial activity against Escherichia coli ATCC […] assessed as growth inhibition after 24-48 hr by broth microdilution technique. The assay is classed as functional.
For another assay, the system named is Klebsiella pneumoniae. The experiment in a line: Antimicrobial activity against Klebsiella pneumoniae CCM 2318 assessed as growth inhibition after 24 to 48 hr by broth microdilution technique. The assay is classed as functional.
Another assay deals with Pseudomonas aeruginosa. The experiment in a line: Antimicrobial activity against Pseudomonas aeruginosa ATCC 27853 assessed as growth inhibition after 24-48 hr by broth microdilution technique. The format is functional.
Another assay relates to Staphylococcus aureus. In words: Antimicrobial activity against Staphylococcus aureus ATCC 6538-P assessed as growth inhibition after 24-48 hr by broth microdilution technique. The assay is classed as functional.
The subject of another assay is Salmonella typhimurium. The experiment in a line: Antimicrobial activity against Salmonella enterica subsp. enterica serovar Typhimurium CCM 5445 assessed as growth inhibition after 24-48 hr by broth microdilution technique. The format is functional.
A further assay concerns Candida albicans. The experiment in a line: Antimicrobial activity against Candida albicans ATCC 10239 assessed as growth inhibition after 24-48 hr by broth microdilution technique. The assay is classed as functional.

Structures are written as SMILES. Values after ≈ are worked out from the molar mass of the structure shown. Active and inactive are the calls of the source. No cut-off for these calls is given here.

As to `CC(=O)Cc1ccc(C=O)o1` [5-ACETYLMETHYL-FURFURAL], the “growth inhibition (GI)” value in the assay on Enterococcus faecalis was “inactive”. The MIC in the assay on Bacillus subtilis was 500 µg/mL (≈ 3.29 mM); in the assay on Escherichia coli, 500 µg/mL (≈ 3.29 mM); in the assay with Klebsiella pneumoniae, 2500 µg/mL (≈ 16.4 mM); in the assay on Pseudomonas aeruginosa, 500 µg/mL (≈ 3.29 mM); in the assay on Salmonella typhimurium, 750 µg/mL (≈ 4.93 mM); in the assay on Candida albicans, 2500 µg/mL (≈ 16.4 mM). The MIC result with Staphylococcus aureus was “inactive”.

For `COC(C)(CC1O[C@@H]2[C@H]3O[C@@H](C(Cl)(Cl)Cl)O[C@H]3O[C@H]12)OC` (stereo partly drawn), the “growth inhibition (GI)” value with Enterococcus faecalis is “inactive”. The MIC in the assay with Bacillus subtilis, in the assay with Escherichia coli and in the assay with Pseudomonas aeruginosa was 500 µg/mL (≈ 1.38 mM) each time. The MIC entry in the assay with Klebsiella pneumoniae, in the assay on Staphylococcus aureus, in the assay on Salmonella typhimurium and in the assay on Candida albicans was “inactive” throughout.

Regarding `COC(C)(CC1O[C@H]2[C@H]3OC(C)(C)O[C@H]3O[C@H]12)OC` (stereo partly drawn), the “growth inhibition (GI)” value with Enterococcus faecalis is “inactive”. The MIC is 1500 µg/mL (≈ 5.47 mM) with Bacillus subtilis, 750 µg/mL (≈ 2.73 mM) with Pseudomonas aeruginosa, 3500 µg/mL (≈ 12.8 mM) in the assay on Staphylococcus aureus and 750 µg/mL (≈ 2.73 mM) in the assay on Salmonella typhimurium. Also, the MIC entry in the assay with Escherichia coli, in the assay with Klebsiella pneumoniae and in the assay with Candida albicans was “inactive” each time.

With `COC(C)(CC1O[C@H]2[C@H]3O[C@H](C(Cl)(Cl)Cl)O[C@H]3O[C@H]12)OC` (stereo partly drawn), the “growth inhibition (GI)” value in the assay with Enterococcus faecalis was “inactive”. For the same compound, the MIC in the assay with Bacillus subtilis was determined as 500 µg/mL (≈ 1.38 mM); in the assay on Escherichia coli, 250 µg/mL (≈ 0.688 mM); with Klebsiella pneumoniae it was 2500 µg/mL (≈ 6.88 mM); in the assay on Pseudomonas aeruginosa, 500 µg/mL (≈ 1.38 mM). Further, the MIC result in the assay with Staphylococcus aureus, with Salmonella typhimurium and in the assay on Candida albicans was “inactive” throughout.

In the case of `COC(C)(CC1O[C@H]2[C@H]3O[C@@H](C(Cl)(Cl)Cl)O[C@H]3O[C@H]12)OC` (stereo partly drawn), in the assay on Enterococcus faecalis, the “growth inhibition (GI)” value is “inactive”. In addition, the MIC in the assay with Bacillus subtilis came out at 2500 µg/mL (≈ 6.88 mM); in the assay with Escherichia coli, 500 µg/mL (≈ 1.38 mM); with Klebsiella pneumoniae, 2500 µg/mL (≈ 6.88 mM); in the assay with Pseudomonas aeruginosa it was 500 µg/mL (≈ 1.38 mM). In addition, the MIC entry in the assay on Staphylococcus aureus, with Salmonella typhimurium and in the assay with Candida albicans was “inactive” throughout.

With `COC(C)(CC1O[C@@H]2[C@H]3OC(C)(C)O[C@H]3O[C@H]12)OC` (stereo partly drawn), in the assay with Enterococcus faecalis, the “growth inhibition (GI)” value was “inactive”. Besides, the MIC result with Bacillus subtilis, in the assay with Escherichia coli, in the assay on Klebsiella pneumoniae, with Pseudomonas aeruginosa, with Staphylococcus aureus and in the assay on Salmonella typhimurium was “inactive” in each case. Further, the MIC result in the assay on Candida albicans was “inactive”.
